Results as given in patent US20240336659A1, “CELL-PENETRATING PEPTIDE, ANTI-CANCER PEPTIDE, AND PHARMACEUTICAL COMPOSITION FOR PREVENTING OR TREATING CANCER, COMPRISING SAME” (ONECUREGEN CO., LTD., priority 2021, published 2024).
Positions of bridges follow the written chain, without caps; N, C: chain ends. Residues, ends and D or L forms follow the SMILES beside them. No end group written: not given here.

How the values were obtained:
[1] = test system: lung normal cell line WI38; conditions: WI38, 30 μM and 60 μM
Protocol: (§1) To analyze the cytotoxicity of cell therapeutic peptide fragments on normal cell lines, lung normal cell lines WI38 and CCD39 were treated with OCP9 (SEQ ID NO: 16), OCP9-VGLLIS84-7CC (SEQ ID NO: 44), OCP9-VGLLIS84-9CC (SEQ ID NO: 46) and OCP9-VGLL1S84-11CC (SEQ ID NO: 48) at 30 μM and 60 μM, respectively, and the growth degrees of the cell lines were evaluated.

[2] = test system: lung normal cell line CCD39; conditions: CCD39, 30 μM and 60 μM
Protocol: as §1

[3] = test system: stomach cancer cell line NUGC3; assay: Cell growth inhibition (sulforhodamine B staining); format: cell-based; conditions: for cancer cell growth inhibitory effect: NUGC3, 10 μM screening of Table 4 peptides; for cell permeability (as concluded from the growth inhibition screening): NUGC3, 10 μM screening; for cancer cell growth inhibitory efficacy: NUGC3, treated for each concentration
Protocol: (§2) Specifically, in order to confirm cell growth ability, a stomach cancer cell line NUGC3 and a breast cancer cell line SK-BR-3 were each subcultured in a 96-well plate, and the next day, peptide fragments Con, 7, and CC of Table 2 were treated with 100 μM each to the cell lines. After 72 hours, the cells were immobilized with a 10% trichloroacetic acid solution, and then stained the cell with a 0.4% sulforhodamine B solution for 1 hour, washed with acetic acid, and dried. Thereafter, the dried cells were dissolved in a 10 mM Tris solution and absorbance was measured at 510 nm using an ELISA plate reader.
In order to compare the cancer cell growth inhibitory effects of cancer therapeutic peptides according to cell-penetrating peptides, the stomach cancer cell line NUGC3 was treated with 10 μM each of cancer therapeutic peptide fragments in Table 4, and the cancer cell growth inhibitory effects were screened in the same manner as in Example 1.
Specifically, in order to confirm the cancer cell inhibition enhancing effect by enhancing the cell permeability of OCP5 among the novel synthesized CPPs, a cancer therapeutic peptide fragment represented by SEQ ID NO: 6 including the existing TAT and a cancer therapeutic peptide fragment represented by SEQ ID NO: 31 including the novel synthesized OCP5 were used. The stomach cancer cell lines NUGC3 and AGS, the breast cancer cell line SK-BR-3, and the pancreatic cancer cell line Capan-1 were treated with 25 μM SEQ ID NO: 6 and 100 μM SEQ ID NO: 31 for 72 hours, respectively, and the cancer cell growth inhibitory effects were compared in the same manner as in Example 1. […] Through this, it was confirmed that the novel CPP may be applied more effectively than the existing TAT to inhibit the cancer cell growth by the anticancer peptides.
(§3) To analyze the cancer cell growth inhibitory effect according to a length of the anticancer peptide fragment, OCP9-VGLLIS84-7 (SEQ ID NO: 43), OCP9-VGLLIS84-9CC (SEQ ID NO: 46), and OCP9-VGLLIS84-15 (SEQ ID NO: 49) were treated for each concentration to analyze the growth inhibitory effects of stomach cancer cell lines NUGC3 and NCI-N87. When stomach cancer cells were treated with cancer therapeutic peptides, the cancer cell growth inhibitory efficacy was shown in a concentration-dependent manner. In addition, it was confirmed that the growth inhibitory effect on the stomach cancer cell lines increased as the length of the anticancer peptide fragment increased (FIG. 7).
Specifically, the cancer cell growth inhibitory effect according to partial or entire cyclization of the anticancer peptide fragment was analyzed. The stomach cancer cell line NUGC3 was treated with a CPP fragment OCP9 (SEQ ID NO: 16), a partially cyclized sequence […] (SEQ ID NO: 33), or a sequence OCP9-VGLLIS84-7CC (SEQ ID NO: 40) including an entirely cyclized anticancer peptide at different concentrations of 1, 2.5, 5, 10, and 20 μM, respectively, and the cancer cell growth inhibitory effects were compared in the same manner as in Example 1.

[4] = test system: cell line NUGC3; assay: Cell permeability of FITC-conjugated peptides by FACS; format: cell-based; conditions: NUGC3, 1.5 or 2.5 μM FITC-conjugated peptide, 3 hours; compared to TAT
Protocol: To quantitatively measure the cell permeability of the novel synthesized cell-penetrating peptides, 1.5 or 2.5 μM FITC-conjugated peptides were administered to the cell line NUGC3 or the normal cell line WI38, and after 3 hours, the amounts of FITC present in the cells were measured by FACS.

[5] = test system: stomach cancer cell lines NUGC3; assay: Mouse xenograft experiment (tumor formation); format: in vivo, Balb-c/nude mouse; conditions: intraperitoneally 10 mg/kg once a day
Protocol: A mouse xenograft experiment was performed to analyze a tumor formation inhibitory effect of cancer therapeutic peptide fragments. Specifically, 5×10^6 stomach cancer cell lines NUGC3 were transplanted by subcutaneous injection into a flank site of a 6-week-old female Balb-c/nude mouse, and after one week (average tumor size 100 mm^3), Vehicle (0.9% saline), OCP5 (SEQ ID NO: 12), OCP5-VGLL1S84-15C (SEQ ID NO: 29), or OCP5-VGLL1S84-7C (SEQ ID NO: 33) was each administered intraperitoneally at 10 mg/kg once a day. Tumor size was measured with a digital caliper at 2-day intervals from the start of drug administration, and the tumor size (tumor size (mm^3)=long axis x short axis2) was calculated. The experiment was terminated when the average tumor size of the OCP5-administered group was 1,000 mm3, and then the tumor was extracted, and the tumor weight was measured.

[6] = test system: stomach cancer cell line NCI-N87; assay: Cell growth inhibition (sulforhodamine B staining); format: cell-based; conditions: NCI-N87, treated for each concentration
Protocol: as §2, §3

Question: Which results are given for `CC[C@H](C)[C@@H]1NC(=O)[C@H](CCCNC(=N)N)NC(=O)[C@H](Cc2ccccc2)NC(=O)[C@H]([C@@H](C)CC)NC(=O)[C@H]([C@@H](C)CC)NC(=O)[C@H](CO)NC(=O)[C@@H](N)CSSC[C@@H](C(=O)O)NC(=O)[C@H](CCCCN)NC(=O)[C@H]([C@@H](C)O)NC(=O)[C@H](Cc2c[nH]c3ccccc23)NC(=O)[C@@H]2CCCN2C(=O)[C@H](CO)NC(=O)[C@H](CO)NC(=O)[C@H](Cc2ccc(O)cc2)NC(=O)[C@H](CCCNC(=N)N)NC(=O)[C@H](CCCNC(=N)N)NC(=O)[C@H](CCCNC(=N)N)NC(=O)[C@H](CCCNC(=N)N)NC(=O)[C@H](CCCNC(=N)N)NC(=O)[C@H](Cc2ccccc2)NC1=O` [OCP9-VGLL1S84-7CC, CSIIFRIFRRRRR-YSSPWTKC] (HELM PEPTIDE1{C.S.I.I.F.R.I.F.R.R.R.R.R.Y.S.S.P.W.T.K.C}$PEPTIDE1,PEPTIDE1,1:R3-21:R3$$$V2.0)?
Answer: cytotoxicity (growth inhibitory or abnormal effect) [1]: no cytotoxicity; cytotoxicity (growth inhibitory or abnormal effect) [2]: no cytotoxicity

Question: For `CC[C@H](C)[C@@H]1NC(=O)[C@H](CCCNC(=N)N)NC(=O)[C@H](Cc2ccccc2)NC(=O)[C@H]([C@@H](C)CC)NC(=O)[C@H]([C@@H](C)CC)NC(=O)[C@H](CO)NC(=O)[C@@H](N)CSSC[C@@H](C(=O)O)NC(=O)[C@H](CCCCN)NC(=O)[C@H]([C@@H](C)O)NC(=O)[C@H](Cc2c[nH]c3ccccc23)NC(=O)[C@@H]2CCCN2C(=O)[C@H](CO)NC(=O)[C@H](CO)NC(=O)[C@H](Cc2ccc(O)cc2)NC(=O)[C@H](CCCNC(=N)N)NC(=O)[C@H](Cc2c[nH]c3ccccc23)NC(=O)[C@H](CCCNC(=N)N)NC(=O)[C@H](CCCNC(=N)N)NC(=O)[C@H](CCCNC(=N)N)NC(=O)[C@H](CCCNC(=N)N)NC(=O)[C@H](CCCNC(=N)N)NC(=O)[C@H](Cc2ccccc2)NC1=O` [OCP9-VGLL1S84-9CC, CSIIFRIFRRRRR-WRYSSPWTKC] (HELM PEPTIDE1{C.S.I.I.F.R.I.F.R.R.R.R.R.W.R.Y.S.S.P.W.T.K.C}$PEPTIDE1,PEPTIDE1,1:R3-23:R3$$$V2.0), which “cytotoxicity (growth inhibitory or abnormal effect)” value [1] is on record?
Answer: The value was “no cytotoxicity”.

Question: And the “cytotoxicity (growth inhibitory or abnormal effect)” value [2]?
Answer: The value was “no cytotoxicity”.

Question: Which results are given for `CC[C@H](C)[C@@H]1NC(=O)[C@H](CCCNC(=N)N)NC(=O)[C@H](Cc2ccccc2)NC(=O)[C@H]([C@@H](C)CC)NC(=O)[C@H]([C@@H](C)CC)NC(=O)[C@H](CO)NC(=O)[C@@H](N)CSSC[C@@H](C(=O)O)NC(=O)[C@H](CCCCN)NC(=O)[C@H]([C@@H](C)O)NC(=O)[C@H](Cc2c[nH]c3ccccc23)NC(=O)[C@@H]2CCCN2C(=O)[C@H](CO)NC(=O)[C@H](CO)NC(=O)[C@H](Cc2ccc(O)cc2)NC(=O)[C@H](CCCNC(=N)N)NC(=O)[C@H](Cc2c[nH]c3ccccc23)NC(=O)[C@H](CCC(N)=O)NC(=O)[C@H](CC(N)=O)NC(=O)[C@H](CCCNC(=N)N)NC(=O)[C@H](CCCNC(=N)N)NC(=O)[C@H](CCCNC(=N)N)NC(=O)[C@H](CCCNC(=N)N)NC(=O)[C@H](CCCNC(=N)N)NC(=O)[C@H](Cc2ccccc2)NC1=O` [OCP9-VGLL1S84-11CC, CSIIFRIFRRRRR-NQWRYSSPWTKC] (HELM PEPTIDE1{C.S.I.I.F.R.I.F.R.R.R.R.R.N.Q.W.R.Y.S.S.P.W.T.K.C}$PEPTIDE1,PEPTIDE1,1:R3-25:R3$$$V2.0)?
Answer: cytotoxicity (growth inhibitory or abnormal effect) [1]: no cytotoxicity; cytotoxicity (growth inhibitory or abnormal effect) [2]: no cytotoxicity

Question: With KKKKRKVRGDSI (OCP15) as the compound, how does the “cancer cell growth inhibitory effect” value [3] read?
Answer: Its value is “excluding”.

Question: With KKKKRKVSIIFIRGD (OCP16) as the compound, how does the “cancer cell growth inhibitory effect” value [3] read?
Answer: The value was “excluding”.

Question: With KKKKRKVSIIFRIF (OCP18) as the compound, how does the “intracellular permeability (amount of FITC in the cells)” value (“intracellular permeability” below) [4] read?
Answer: The value was “significantly increased”.

Question: KKKKRKVSIRGD (OCP17) was tested. Which “cancer cell growth inhibitory effect” value [3] did it give?
Answer: Its value is “excluding”.

Question: How did the “cancer cell growth inhibitory effect” value [3] turn out when RRRRRGDSIIF (OCP13) was run?
Answer: Its value is “excluding”.

Question: RRRRRSIIFRGD (OCP12) was tested. Which “cancer cell growth inhibitory effect” value [3] did it give?
Answer: Its value is “excluding”.

Question: For SIIFRIFLHLQK (OCP1), which “cell permeability (as concluded from the growth inhibition screening)” value [3] is on record?
Answer: The value was “increased”.

Question: With “SIIFRIFLHLQK-CYSSPWTKC (SIIFRIFLHLQKCYSSPWTKC; disulfide 13-21) [SEQ ID NO: 31]” as the compound, how does the “cancer cell growth inhibitory effect” value [3] read?
Answer: The value was “significant cancer cell growth inhibitory effect”.

Question: SIIFRIFLHLQKRRR (OCP5) was tested. Which “effect on tumor formation compared to the vehicle group” value [5] did it give?
Answer: Its value is “did not affect the tumor formation”.

Question: And the “cell permeability (as concluded from the growth inhibition screening)” value [3]?
Answer: The value was “increased”.

Question: And the “cancer cell growth inhibitory effect” value [3]?
Answer: Its value is “increased”.

Question: What about the “intracellular permeability” value [4] of the same compound?
Answer: Its value is “significantly increased”.

Question: For SIIFRIFRRRRR (OCP9), which “intracellular permeability” value [4] is on record?
Answer: The value was “significantly increased”.

Question: How did the “cancer cell growth inhibitory efficacy” value [6] turn out when “SIIFRIFRRRRR-PNQWRYSSPWTKPQP (SIIFRIFRRRRRPNQWRYSSPWTKPQP; OCP9-VGLL1S84-15) [OCP9-VGLLIS84-15]” was run?
Answer: The value was “concentration-dependent”.

Question: And the “cancer cell growth inhibitory efficacy” value [3]?
Answer: Its value is “concentration-dependent”.

Question: How did the “cancer cell growth inhibitory efficacy” value [6] turn out when “SIIFRIFRRRRR-YSSPWTK (SIIFRIFRRRRRYSSPWTK; OCP9-VGLL1S84-7) [OCP9-VGLLIS84-7]” was run?
Answer: Its value is “concentration-dependent”.

Question: And the “cancer cell growth inhibitory efficacy” value [3]?
Answer: Its value is “concentration-dependent”.
